Source: patent US20220315554A1, “COMPOUNDS COMPRISING A […] LIGAND AND USE THEREOF” (priority 2019, published 2022)
Numbered stars: 1 amine (or outer) side, 2 acyl side, 3 side chain; on linkers, the order of the positions; unused ones are H or OH. Bridge positions count the residues as written; N and C are the ends. Square brackets hold non-standard residues; d marks the D form. Peptide text beside a SMILES is read from it. * marks the point of attachment. ξ: configuration not given here. mXylylene = c1cc(C[*:1])cc(C[*:2])c1; 4Pal = N[C@@H](Cc1ccncc1)C(=O)O; Aic = NC1(C(=O)O)Cc2ccccc2C1; Hexanoyl = CCCCCC(=O)*; ξM = CSCCC(N)C(=O)O

What was measured:
[1] = Plasma stability assay, mouse plasma; assay type: in vitro ADME; conditions: 4 h incubation, 37° C., read-out: % intact compound remaining after incubation, Mouse plasma
[2] = biological target: T1, FAP-expressing human WI-38 fibroblasts (Homo sapiens, UniProt Q12884); test: Competitive FACS binding assay; conditions: pIC50 Category (FACS), competition with 3 nM Cy5-labeled compound, WI-38 fibroblasts, 4° C., 1 hour
T1 construct: FAP-expressing human WI-38 fibroblasts (ECACC) were cultured in EMEM; host or cells: WI-38 human fibroblasts
T1 sequence (Q12884 1-760): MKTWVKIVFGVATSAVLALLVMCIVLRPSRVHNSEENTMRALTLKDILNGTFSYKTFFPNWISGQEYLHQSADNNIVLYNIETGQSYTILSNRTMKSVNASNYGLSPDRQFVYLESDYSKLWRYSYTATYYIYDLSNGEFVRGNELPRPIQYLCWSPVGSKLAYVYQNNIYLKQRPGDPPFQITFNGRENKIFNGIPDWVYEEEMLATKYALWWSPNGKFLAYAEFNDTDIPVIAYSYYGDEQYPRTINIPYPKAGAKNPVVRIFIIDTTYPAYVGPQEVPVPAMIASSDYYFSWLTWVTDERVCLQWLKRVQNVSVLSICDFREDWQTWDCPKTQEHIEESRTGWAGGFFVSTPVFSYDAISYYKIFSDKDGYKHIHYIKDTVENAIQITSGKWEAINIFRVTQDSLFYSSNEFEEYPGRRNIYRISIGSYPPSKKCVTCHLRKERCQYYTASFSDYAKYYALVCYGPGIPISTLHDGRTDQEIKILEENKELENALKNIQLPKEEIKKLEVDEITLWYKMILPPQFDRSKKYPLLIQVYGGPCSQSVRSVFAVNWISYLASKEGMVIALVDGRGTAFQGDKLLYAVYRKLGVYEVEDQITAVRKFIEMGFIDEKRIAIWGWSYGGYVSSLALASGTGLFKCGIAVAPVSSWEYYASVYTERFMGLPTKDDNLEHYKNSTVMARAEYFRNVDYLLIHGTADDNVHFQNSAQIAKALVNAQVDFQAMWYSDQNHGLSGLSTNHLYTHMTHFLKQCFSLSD
Protocol: Cells were analyzed in an Attune NxT flow cytometer. […]

[3] = biological target: T2, Human recombinant FAP (Homo sapiens, UniProt Q12884); test: Surface plasmon resonance (Biacore) assay; assay type: binding
T2 sequence (Q12884 1-760): T1 sequence (Q12884 1-760)

[4] = biological target: T2, Human recombinant FAP; test: FRET-based FAP protease activity assay; assay type: biochemical; design: purchased R&D systems 3715-SE; conditions: pIC50 Category (Activity), recombinant human FAP, FRET substrate, 37° C.

SMILES | remaining at 4 h, 9.8 µM [1] | IC50 [2] | Kd [3] | IC50 [4]
CSCC[C@H](NC(C)=O)C(=O)N[C@H]1CSCc2cccc(c2)CSC[C@@H](C(=O)N[C@@H](CC(=O)O)C(=O)N[C@@H](Cc2c[nH]cn2)C(=O)N[C@@H](Cc2ccccc2)C(=O)N[C@@H](CCCNC(=N)N)C(=O)N[C@@H](CC(=O)O)C(N)=O)NC(=O)[C@H](Cc2ccccc2)NC(=O)[C@H](CCC(=O)O)NC(=O)[C@H]([C@@H](C)O)NC(=O)[C@@H]2CCCN2C(=O)[C@@H]2CCCN2C1=O [3BP-2975, Ac-Met-[Cys(3MeBn)-Pro-Pro-Thr-Glu-Phe-Cys]-Asp-His-Phe-Arg-Asp-NH2] (Ac-MCPPTEFCDHFRD-NH2; linker 2-8 via mXylylene) | 100% | < 10 nM | < 10 nM | < 10 nM
CCCCCC(=O)N[C@H]1CSCc2cccc(c2)CSC[C@@H](C(=O)N[C@@H](CC(=O)O)C(=O)N[C@@H](Cc2c[nH]cn2)C(=O)N[C@@H](Cc2ccccc2)C(=O)N[C@@H](CCCNC(=N)N)C(=O)N[C@@H](CC(=O)O)C(N)=O)NC(=O)[C@H](Cc2ccccc2)NC(=O)[C@H](CCC(=O)O)NC(=O)[C@H]([C@@H](C)O)NC(=O)[C@@H]2CCCN2C(=O)[C@@H]2CCCN2C1=O [3BP-2974, Hex-[Cys(3MeBn)-Pro-Pro-Thr-Glu-Phe-Cys]-Asp-His-Phe-Arg-Asp-NH2] (Hexanoyl-CPPTEFCDHFRD-NH2; linker 1-7 via mXylylene) | 92% | < 10 nM | < 10 nM | < 10 nM
CSCC[C@H](NC(C)=O)C(=O)N[C@H]1CSCc2cccc(c2)CSC[C@@H](C(=O)N[C@@H](CC(=O)O)C(=O)N[C@@H](Cc2c[nH]cn2)C(=O)NC2(C(=O)N[C@@H](CCCNC(=N)N)C(=O)N[C@@H](CC(=O)O)C(N)=O)Cc3ccccc3C2)NC(=O)[C@H](Cc2ccccc2)NC(=O)[C@H](CCC(=O)O)NC(=O)[C@H]([C@@H](C)O)NC(=O)[C@@H]2CCCN2C(=O)[C@@H]2CCCN2C1=O [3BP-3190, Ac-Met-[Cys(3MeBn)-Pro-Pro-Thr-Glu-Phe-Cys]-Asp-His-Aic-Arg-Asp-NH2] (Ac-MCPPTEFCDH[Aic]RD-NH2; linker 2-8 via mXylylene) | 88% | < 10 nM | – | < 10 nM
CSCC[C@H](NC(C)=O)C(=O)N[C@H]1CSCc2cccc(c2)CSC[C@@H](C(=O)N[C@@H](CC(=O)O)C(=O)N[C@@H](Cc2c[nH]cn2)C(=O)N[C@@H](C)C(=O)N[C@@H](CCCNC(=N)N)C(=O)N[C@@H](CC(=O)O)C(N)=O)NC(=O)[C@H](Cc2ccccc2)NC(=O)[C@H](CCC(=O)O)NC(=O)[C@H]([C@@H](C)O)NC(=O)[C@@H]2CCCN2C(=O)[C@@H]2CCCN2C1=O [3BP-3196, Ac-Met-[Cys(3MeBn)-Pro-Pro-Thr-Glu-Phe-Cys]-Asp-His-Ala-Arg-Asp-NH2] (Ac-MCPPTEFCDHARD-NH2; linker 2-8 via mXylylene) | 87% | < 10 nM | – | < 10 nM
CSCC[C@H](NC(C)=O)C(=O)N[C@H]1CSCc2cccc(c2)CSC[C@@H](C(=O)N[C@@H](CC(=O)O)C(=O)N[C@@H](Cc2c[nH]cn2)C(=O)N[C@H](Cc2ccccc2)C(=O)N[C@@H](CCCNC(=N)N)C(=O)N[C@@H](CC(=O)O)C(N)=O)NC(=O)[C@H](Cc2ccccc2)NC(=O)[C@H](CCC(=O)O)NC(=O)[C@H]([C@@H](C)O)NC(=O)[C@@H]2CCCN2C(=O)[C@@H]2CCCN2C1=O [3BP-3211, Ac-Met-[Cys(3MeBn)-Pro-Pro-Thr-Glu-Phe-Cys]-Asp-His-phe-Arg-Asp-NH2] (Ac-MCPPTEFCDH[dF]RD-NH2; linker 2-8 via mXylylene) | 85% | < 10 nM | – | < 10 nM
CSCCC(N)C(=O)N[C@H]1CSCc2cccc(c2)CSC[C@@H](C(=O)N[C@@H](CC(=O)O)C(=O)N[C@@H](Cc2c[nH]cn2)C(=O)N[C@@H](Cc2ccccc2)C(=O)N[C@@H](CCCNC(=N)N)C(=O)N[C@@H](CC(=O)O)C(N)=O)NC(=O)[C@H](Cc2ccccc2)NC(=O)[C@H](CCC(=O)O)NC(=O)[C@H]([C@@H](C)O)NC(=O)[C@@H]2CCCN2C(=O)[C@@H]2CCCN2C1=O (stereo partly drawn) [3BP-2976, H-met-[Cys(3MeBn)-Pro-Pro-Thr-Glu-Phe-Cys]-Asp-His-Phe-Arg-Asp-NH2] (H-[ξM]CPPTEFCDHFRD-NH2; linker 2-8 via mXylylene) | 93% | < 10 nM | – | < 10 nM
CSCC[C@H](NC(C)=O)C(=O)N[C@H]1CSCc2cccc(c2)CSC[C@@H](C(=O)N[C@@H](CC(=O)O)C(=O)N[C@@H](Cc2c[nH]cn2)C(=O)N[C@@H](Cc2ccncc2)C(=O)N[C@@H](CCCNC(=N)N)C(=O)N[C@@H](CC(=O)O)C(N)=O)NC(=O)[C@H](Cc2ccccc2)NC(=O)[C@H](CCC(=O)O)NC(=O)[C@H]([C@@H](C)O)NC(=O)[C@@H]2CCCN2C(=O)[C@@H]2CCCN2C1=O [3BP-3191, Ac-Met-[Cys(3MeBn)-Pro-Pro-Thr-Glu-Phe-Cys]-Asp-His-Ppa-Arg-Asp-NH2] (Ac-MCPPTEFCDH[4Pal]RD-NH2; linker 2-8 via mXylylene) | 100% | < 10 nM | – | < 10 nM
CSCC[C@H](NC(C)=O)C(=O)N[C@H]1CSCc2cccc(c2)CSC[C@@H](C(=O)N[C@H](CC(=O)O)C(=O)N[C@@H](Cc2c[nH]cn2)C(=O)N[C@@H](Cc2ccccc2)C(=O)N[C@@H](CCCNC(=N)N)C(=O)N[C@@H](CC(=O)O)C(N)=O)NC(=O)[C@H](Cc2ccccc2)NC(=O)[C@H](CCC(=O)O)NC(=O)[C@H]([C@@H](C)O)NC(=O)[C@@H]2CCCN2C(=O)[C@@H]2CCCN2C1=O [3BP-3183, Ac-Met-[Cys(3MeBn)-Pro-Pro-Thr-Glu-Phe-Cys]-asp-His-Phe-Arg-Asp-NH2] (Ac-MCPPTEFC[dD]HFRD-NH2; linker 2-8 via mXylylene) | 98% | 10 to 79.4 nM | – | 10 to 79.4 nM
CC(=O)N[C@H]1CSCc2cccc(c2)CSC[C@@H](C(=O)N[C@@H](CC(=O)O)C(=O)N[C@@H](Cc2c[nH]cn2)C(=O)N[C@@H](Cc2ccccc2)C(=O)N[C@@H](CCCNC(=N)N)C(=O)N[C@@H](CC(=O)O)C(N)=O)NC(=O)[C@H](Cc2ccccc2)NC(=O)[C@H](CCC(=O)O)NC(=O)[C@H]([C@@H](C)O)NC(=O)[C@@H]2CCCN2C(=O)[C@@H]2CCCN2C1=O [3BP-3202, Ac-[Cys(3MeBn)-Pro-Pro-Thr-Glu-Phe-Cys]-Asp-His-Phe-Arg-Asp-NH2] (Ac-CPPTEFCDHFRD-NH2; linker 1-7 via mXylylene) | 78% | < 10 nM | < 10 nM | < 10 nM
CSCC[C@H](NC(C)=O)C(=O)N[C@H]1CSCc2cccc(c2)CSC[C@@H](C(=O)N[C@@H](CC(=O)O)C(=O)N[C@@H](Cc2c[nH]cn2)C(=O)N2Cc3ccccc3C[C@H]2C(=O)N[C@@H](CCCNC(=N)N)C(=O)N[C@@H](CC(=O)O)C(N)=O)NC(=O)[C@H](Cc2ccccc2)NC(=O)[C@H](CCC(=O)O)NC(=O)[C@H]2NC(=O)[C@@H]3C(CCN3C(=O)[C@@H]3CCCN3C1=O)[C@H]2O [3BP-3189, Ac-Met-[Cys(3MeBn)-Pro-Pro-Thr-Glu-Phe-Cys]-Asp-His-Tic-Arg-Asp-NH2] | 100% | < 10 nM | – | < 10 nM
